Measurements: US9981960B2, “Pyrrolidine compound and application as melanocortin receptor agonist” (MITSUBISHI TANABE PHARMA CORPORATION, priority 2014, dated 2018)

Target: T1, Human MC1R (Homo sapiens, UniProt Q01726)
T1 construct: endogenous in cells; host or cells: human melanoma cell line HBL
Experiment: MCR agonist measurement (cAMP measurement), human MC1R agonist activity in human melanoma cell line HBL
Assay type: cell-based
Conditions: HBL cells; for EC50: 37° C. for 30 minutes, intracellular cAMP by fluorescence method; for Human MC1R IA %: Intrinsic Activity, vehicle cAMP = 0%, αMSH at 10^-6 M = 100%
Procedure: (1) Method for Culturing Cells
Human MC1R agonist activity measurement was carried out by using human melanoma cell line HBL. Culture of HBL: F-10 Nutrient Mixture containing 10% FCS and Penicillin-streptomycin was used in the culture.
(2) cAMP Assay and Data Calculation
Each compound solution having each concentration was mixed with cAMP assay buffer (HBSS (Hank's Balanced Salt Solution) containing 10 mM HEPES and 0.1% BSA), and dispensed into 96 well plate. HBL was suspended in cAMP assay buffer containing 0.5 mM IBMX so that the concentrate became 5×10^4/mL, dispensed into the above 96 well plate, then mixed, left to stand at 37° C. for 30 minutes, and then the intracellular […] concentration was measured by fluorescence method using Envision (ex. 320 nm, em. 590 nm and 665 nm).

T1 sequence (Q01726 whole entry): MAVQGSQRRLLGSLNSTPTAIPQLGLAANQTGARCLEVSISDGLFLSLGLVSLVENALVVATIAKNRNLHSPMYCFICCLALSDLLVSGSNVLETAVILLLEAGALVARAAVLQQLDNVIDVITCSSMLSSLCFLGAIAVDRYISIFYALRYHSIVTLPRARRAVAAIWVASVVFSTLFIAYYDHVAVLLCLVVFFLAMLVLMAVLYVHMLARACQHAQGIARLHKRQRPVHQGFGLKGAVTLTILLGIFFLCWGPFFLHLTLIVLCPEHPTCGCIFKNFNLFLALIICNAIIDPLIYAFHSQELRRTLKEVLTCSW

Row | Compound | EC50 [nM] | Human MC1R IA % [%]
1 | COC[C@@H]1C[C@@H](c2ccc(C(F)(F)F)cc2N2CCC(C(=O)O)CC2)CN1C(=O)[C@]1(F)CN([C@H]2CC[C@H](C#N)CC2)C[C@H]1c1ccc(OC)cc1 [Example 143] | 0.76 | 96
2 | CCO[C@H]1CC[C@H](N2C[C@@H](c3ccc(OC)cc3)[C@](OC)(C(=O)N3C[C@H](c4ccc(C(F)(F)F)cc4N4CCC(C(=O)O)CC4)C[C@H]3COC)C2)CC1 [Example 146] | 0.75 | 118
3 | COc1ccc([C@@H]2CN([C@H]3CC[C@H](OC)CC3)C[C@@]2(F)C(=O)N2C[C@H](c3ccc(C(F)(F)F)cc3N3CCC(C(=O)O)CC3)[C@@H](F)C2)cc1 [Example 148] | 3.6 | 93
4 | COC[C@@H]1C[C@@H](c2ccc(C(F)(F)F)cc2N2CCC(C(=O)O)CC2)CN1C(=O)[C@]1(OC)CN(C2CCCCCC2)C[C@H]1c1ccc(OC)cc1 [Example 154] | 1.1 | 85
5 | COC[C@@]1(OC)CN(C(=O)[C@]2(F)CN([C@H]3CC[C@H](OC)CC3)C[C@H]2c2ccc(OC)cc2)C[C@@H]1c1ccc(C(F)(F)F)cc1N1CCC(C(=O)O)CC1 [Example 156] | 29 | 83
6 | COC[C@@H]1C[C@@H](c2ccc(C(F)(F)F)cc2N2CCC(C(=O)O)CC2)CN1C(=O)[C@]1(OC)CN([C@H]2CC[C@H](OC(C)C)CC2)C[C@H]1c1ccc(OC)cc1 [Example 160] | 0.67 | 106
7 | COc1ccc([C@@H]2CN(C3CCCC3)C[C@@]2(F)C(=O)N2CCC=C(c3ccc(C(F)(F)F)cc3N3CCC(C(=O)O)CC3)C2)cc1 [Example 163] | 20 | 36
8 | COc1ccc([C@@H]2CN(C(C)(C)C)C[C@@]2(F)C(=O)N2CCC(c3ccc(C(F)(F)F)cc3[C@H]3C[C@H](C(=O)O)C3)CC2)cc1 [Example 177] | 7.4 | 80
9 | COc1ccc([C@@H]2CN(C3CCN(C(CF)CF)CC3)C[C@@]2(F)C(=O)N2CCC(c3ccc(C(F)(F)F)cc3N3CCC(C(=O)O)CC3)CC2)cc1 [Example 193] | 17 | 103
10 | COc1ccc([C@@H]2CN(C(C)(C)C)C[C@@]2(F)C(=O)N2CCC(c3ccc(Cl)cc3N3CCC(C(=O)O)CC3)CC2)cc1 [Example 195] | 40 | 87
11 | COc1ccc([C@@H]2CN(C(C)(C)C)C[C@@]2(F)C(=O)N2CCC(c3ccc(C(F)F)cc3N3CCC(C(=O)O)CC3)CC2)cc1 [Example 198] | 45 | 66
12 | COC[C@H]1CN(C(=O)[C@]2(F)CN(C3CCCC3)C[C@H]2c2ccc(OC)cc2)C[C@@H]1c1cc(F)c(F)cc1N1CCC(C(=O)O)CC1 [Example 201] | 31 | 107
13 | COc1ccc([C@@H]2CN(C(C)(C)C)C[C@@]2(F)C(=O)N2CCC(c3ccc(C(F)(F)F)cc3N3CCC(N(C)C)CC3)CC2)cc1 [Example 205] | 38 | 67
14 | COc1ccc([C@@H]2CN([C@H]3CC[C@H](OC)CC3)C[C@@]2(F)C(=O)N2CC[C@@H](c3ccc(C(F)(F)F)cc3N3CCC(C(=O)O)CC3)C2)cc1 [Example 213] | 0.89 | 88
15 | COc1ccc([C@@H]2CN(C3CCOCC3)C[C@@]2(F)C(=O)N2CC[C@@H](c3ccc(C(F)(F)F)cc3N3CCC(C(=O)O)CC3)C2)cc1 [Example 215] | 14 | 59
16 | COc1ccc([C@@H]2CN([C@H]3CC[C@H](OC)CC3)C[C@@]2(F)C(=O)N2CC[C@@H](c3ccc(F)cc3N3CCC(C(=O)O)CC3)C2)cc1 [Example 218] | 4.3 | 110
17 | COc1ccc([C@@H]2CN(C3CCN(C(CF)CF)CC3)C[C@@]2(F)C(=O)N2CC[C@@H](c3ccc(C(F)(F)F)cc3N3CCC(C(=O)O)CC3)C2)cc1 [Example 219] | 6.7 | 104
18 | COc1ccc([C@@H]2CN(C3CCN(C(CF)CF)CC3)C[C@@]2(F)C(=O)N2CC[C@@H](c3ccc(F)cc3N3CCC(C(=O)O)CC3)C2)cc1 [Example 220] | 2.8 | 75
